Test results as given in patent publication US20220081395A1, “DISULPHIDE COMPOUNDS” (NEEM BIOTECH LIMITED, priority 2019, published 2022).

Key:
Format in all cases: cell-based
Staphylococcus aureus = assay: Minimum Biofilm Inhibition Concentration (MBIC) assay, biofilm formation, crystal violet; conditions: IC50 of compound as % of IC50 of ajoene in the same experiment; <100% more effective than ajoene
Description: (§1) Compounds were assayed for their ability to inhibit S. aureus or P. aeruginosa biofilm formation as follows.
(§2) All compounds were prepared as a 30 mM stock in DMSO and diluted in tryptic soy broth (TSB) to 48 μM (S. aureus) or 144 μM (P. aeruginosa). The compounds were further serially diluted two-fold from 48 μM to 0.75 μM (S. aureus) or 144 μM to 2.3 μM (P. aeruginosa) and added to a 96-well plate at 100 μl per well. Overnight cultures of bacteria were diluted to an OD600=0.07 in fresh TSB and 100 μl of the diluted bacterial culture was added to the compound containing wells. The bacteria were incubated in the presence of the compounds overnight at 37° C. After incubation, the planktonic bacteria were removed by three washes using H2O and the remaining biofilm was stained using crystal violet and quantified photometrically at A570. Absorbances corresponding to biofilm mass were plotted versus compound concentration and IC50 values were calculated. Reference: O'Toole G A, Microtiter Dish Biofilm Formation Assay J. Vis. Exp (2011).
(§3) MBIC assays of the compounds are carried out alongside ajoene for reference and standardization. The IC50 of ajoene against S. aureus and P.aeruginosa is well-defined and reproducible allowing ajoene to serve as an effective control for the experiment. As such, the IC50 calculated for the tested compounds are compared to the IC50 of ajoene in every experiment and are therefore represented as % of ajoene.

Pseudomonas aeruginosa = assay: as above; conditions: IC50 of compound as % of IC50 of ajoene in the same experiment; <100% more effective than ajoene
Description: as §1, §2, §3

P. aeruginosa biofilms = assay: Inhibition of respiration/viability of established biofilms grown in artificial sputum medium (TTZ viability assay), with tobramycin; conditions: established 24 h biofilms in ASM, compound 5 hours, then 10 μg/ml tobramycin 16 hours; FIG. 3
Description: Compound B was tested for its efficacy to inhibit P. aeruginosa biofilms in artificial sputum medium (ASM) as follows. Overnight cultures of P. aeruginosa were re-seeded to an OD595=0.07 and further diluted 1:100 in ASM and grown for 24 hours at 37° C. to allow for biofilm formation. Compound B was prepared as 30 mM stock in 100% DMSO and established biofilms were treated with the compound at increasing concentrations or left untreated for 5 hours at 37° C. All samples were then treated with 10 μg/ml tobramycin for 16 hours at 37° C. The artificial sputum was liquified using sputasol. The respiratory potential of the biofilms was quantified using a tetrazolium chloride (2,3,5-triphenyl tetrazolium chloride (TTZ)) viability assay.

S. aureus = assay: Bacterial Exudate Scratch Test (BEST), HaCaT monolayer exposed to S. aureus exudate
Description: (§4) Bacterial cultures (S. aureus and P. aeruginosa) were grown prophylactically with test compounds for 24 hours and exudates were collected.
(§5) Microorganisms were prepared by growing in tryptone soy broth (TSB) at 37° C., 150 rpm for 16 hours.
(§6) The exudates were obtained by first placing in a 24-well plate, 1 mL of each compound treated media and vehicle control media in triplicate. 1 mL of untreated TSB was then added to 3 wells for an untreated control and 2 mL TSB was added to 3 wells for sterility control. Except for the sterility control wells, 1 mL of bacterial suspension was added to each well and mixed well. The plate was then incubated in a humidified incubator at 37° C. for 24 hours at 75 rpm. Following the appropriate incubation time, the entire contents of the well were removed and transferred into a sterile centrifuge tube. The tube was then centrifuged at 10,000 rpm for 10 minutes at 4° C. to pellet the biomass. The supernatant was filtered using a Luer Lock […] filter into another sterile tube. The exudate was aliquoted into 500 μl aliquots in 0.5 mL PCR tubes. […]
(§7) The plates were incubated for 20 hours at 37° C., 5% CO2 and images were taken at the time points as required. Scratch ‘size’ was analysed using ImageJ software.
(§8) The rate of cellular proliferation of the HaCaT cells is calculated at 20 hours as a percentage of the initial scratch size at 0 hours.

P. aeruginosa = assay: Bacterial Exudate Scratch Test (BEST), HaCaT monolayer exposed to P. aeruginosa exudate
Description: as §4, §5, §6, §7, §8

SMILES	S. aureus MBIC: % of Ajoene positive control IC50 (Staphylococcus aureus)	P. aeruginosa MBIC: % of Ajoene positive control IC50 (Pseudomonas aeruginosa)	further results
C=CCSSc1cccc(CS(=O)(=O)Cc2ccco2)c1	22 % of Ajoene	100 % of Ajoene	
CCC(C)CSSc1cccc(CS(=O)(=O)Cc2ccccc2)c1 (centres unmarked)	11 % of Ajoene	94 % of Ajoene	
CSSc1cccc(CS(=O)(=O)Cc2ccccc2)c1 [Compound B, 1-(methyldisulfanyl)-3-(phenylmethanesulfonylmethyl)benzene]			effect on efficacy of tobramycin to inhibit biofilm respiration/viability (P. aeruginosa biofilms): enhances the efficacy of tobramycin
C=CCSSc1cccc(CS(=O)(=O)Cc2ccccc2)c1 [drawing 83]			scratch area at 20 hours (S. aureus; HaCaT exposed to S. aureus exudate pre-treated with test compound (125 pM), vehicle 66% remaining): almost complete closure of the scratch area; effect on inhibition of scratch closure in HaCaT cells (S. aureus; prophylactic (pre-biofilm) treatment of S. aureus with 125 pM test compound, versus vehicle pre-treatment, FIG. 4): completely rescues the inhibition of scratch closure; scratch area at 20 hours (percentage of initial scratch size at 0 hours) (P. aeruginosa; HaCaT exposed to P. aeruginosa exudate pre-treated with test compound (250 μM), vehicle 109%, no exudate 9%): 64%; effect on inhibition of scratch closure in HaCaT cells (P. aeruginosa; prophylactic (pre-biofilm) treatment of P. aeruginosa with 250 μM test compound, versus vehicle pre-treatment, FIG. 5): reduces the inhibition of scratch closure
C=CCSSc1cccc(CS(=O)(=O)Cc2ccccc2)c1 [drawing 76]	5 % of Ajoene	82 % of Ajoene	
C=CCSSc1ccccc1C[S+]([O-])Cc1ccccc1 (centres unmarked)	89 % of Ajoene	76 % of Ajoene	
[O-][S+](Cc1ccccc1)Cc1ccccc1SSCc1ccccc1 (centres unmarked)	89 % of Ajoene	39.9 % of Ajoene	
CCC(C)CSSc1cccc(C[S+]([O-])Cc2ccccc2)c1 (centres unmarked)	22.5 % of Ajoene	15 % of Ajoene	
O=S(=O)(Cc1ccccc1)Cc1cccc(SSCc2ccc(F)cc2)c1	69 % of Ajoene	35 % of Ajoene	
[O-][S+](Cc1ccccc1)Cc1cccc(SSCc2ccccc2)c1 (centres unmarked)	62 % of Ajoene	21 % of Ajoene	
COc1ccc(CSSc2ccccc2C[S+]([O-])Cc2ccccc2)cc1 (centres unmarked)	4 % of Ajoene	58 % of Ajoene	
COc1ccc(CSSc2cccc(C[S+]([O-])Cc3ccccc3)c2)cc1 (centres unmarked)	43 % of Ajoene	20 % of Ajoene	
[O-][S+](Cc1ccccc1)Cc1cccc(SSCc2ccc(C(F)(F)F)cc2)c1 (centres unmarked)	34 % of Ajoene	32 % of Ajoene	
CC(C)CSSc1cccc(C[S+]([O-])Cc2ccccc2)c1 (centres unmarked)	90 % of Ajoene	32 % of Ajoene	
